According to PMC12951562, “SH2scan: Mapping SH2 Domain-Ligand Binding Selectivity for Inhibitors and Degraders” (Journal of Medicinal Chemistry, 2026):
Where two headings read alike, the source gives them in different places.

Legend:
Assay in all cases: biochemical
Assay type in all cases: binding
SOCS2 = target: T1, SOCS2 (Homo sapiens, UniProt O14508); conditions: for remaining activity at 10 µM: read-out: percent of DMSO vehicle control; for Kd: dose-response, read-out: KD
T1 construct: made in house; host or cells: HEK293 (transient transfection), unpurified extract
T1 sequence (O14508 1-198): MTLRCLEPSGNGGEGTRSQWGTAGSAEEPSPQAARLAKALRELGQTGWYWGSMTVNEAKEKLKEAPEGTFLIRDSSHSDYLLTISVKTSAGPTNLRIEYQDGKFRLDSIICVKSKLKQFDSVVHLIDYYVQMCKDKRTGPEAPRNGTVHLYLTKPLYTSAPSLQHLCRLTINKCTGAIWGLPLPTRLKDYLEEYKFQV

SHF = target: T2, SHF (Homo sapiens, UniProt Q7M4L6); conditions: read-out: percent of DMSO vehicle control
T2 construct: made in house; host or cells: HEK293 (transient transfection), unpurified extract
T2 sequence (Q7M4L6 1-423): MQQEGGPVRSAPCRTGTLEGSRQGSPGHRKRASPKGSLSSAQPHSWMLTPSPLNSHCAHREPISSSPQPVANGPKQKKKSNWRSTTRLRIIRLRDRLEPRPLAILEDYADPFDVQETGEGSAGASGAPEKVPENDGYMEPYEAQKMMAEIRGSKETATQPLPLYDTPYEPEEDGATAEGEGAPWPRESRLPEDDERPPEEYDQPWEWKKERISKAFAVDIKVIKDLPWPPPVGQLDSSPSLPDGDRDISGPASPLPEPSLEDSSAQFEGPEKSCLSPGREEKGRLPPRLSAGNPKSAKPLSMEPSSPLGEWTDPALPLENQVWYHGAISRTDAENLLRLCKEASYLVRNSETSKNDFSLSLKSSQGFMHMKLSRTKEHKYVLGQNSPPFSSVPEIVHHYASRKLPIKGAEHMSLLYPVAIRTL

SOCS7 = target: T3, SOCS7 (Homo sapiens, UniProt O14512); conditions: for remaining activity at 10 µM: read-out: percent of DMSO vehicle control
T3 construct: made in house; host or cells: HEK293 (transient transfection), unpurified extract
T3 sequence (O14512 1-581): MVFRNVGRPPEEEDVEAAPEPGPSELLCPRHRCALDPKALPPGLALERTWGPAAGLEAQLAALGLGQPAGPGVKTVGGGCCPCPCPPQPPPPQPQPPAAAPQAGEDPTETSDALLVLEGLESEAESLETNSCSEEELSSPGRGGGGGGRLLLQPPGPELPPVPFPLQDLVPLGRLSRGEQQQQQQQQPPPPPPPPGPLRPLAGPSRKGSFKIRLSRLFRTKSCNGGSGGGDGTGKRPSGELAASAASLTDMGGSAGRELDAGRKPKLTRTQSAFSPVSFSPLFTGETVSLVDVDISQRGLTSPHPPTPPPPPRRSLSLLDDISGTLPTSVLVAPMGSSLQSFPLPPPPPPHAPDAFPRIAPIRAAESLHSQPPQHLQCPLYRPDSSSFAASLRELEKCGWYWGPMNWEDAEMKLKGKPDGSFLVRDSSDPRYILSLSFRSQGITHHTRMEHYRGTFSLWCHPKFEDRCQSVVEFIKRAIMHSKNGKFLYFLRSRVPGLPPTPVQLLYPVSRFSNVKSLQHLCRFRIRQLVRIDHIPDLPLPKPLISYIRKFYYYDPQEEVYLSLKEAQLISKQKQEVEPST

PIK3R2(SH2dom.C-term.) = target: T4, PIK3R2(SH2dom.C-term.) (Homo sapiens, UniProt O00459); conditions: for remaining activity at 10 µM: read-out: percent of DMSO vehicle control; for Kd: read-out: KD
T4 construct: SH2dom.C-term. denotes SH2 domain closest to C-terminus of protein; made in house; host or cells: HEK293 (transient transfection, unpurified extract)
T4 sequence (O00459 622-716 limits assumed): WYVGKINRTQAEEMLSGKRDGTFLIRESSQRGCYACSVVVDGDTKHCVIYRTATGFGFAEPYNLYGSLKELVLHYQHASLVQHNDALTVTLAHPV

TXK = target: T5, TXK (Homo sapiens, UniProt P42681); conditions: read-out: percent of DMSO vehicle control
T5 construct: made in house; host or cells: HEK293 (transient transfection), unpurified extract
T5 sequence (P42681 1-527): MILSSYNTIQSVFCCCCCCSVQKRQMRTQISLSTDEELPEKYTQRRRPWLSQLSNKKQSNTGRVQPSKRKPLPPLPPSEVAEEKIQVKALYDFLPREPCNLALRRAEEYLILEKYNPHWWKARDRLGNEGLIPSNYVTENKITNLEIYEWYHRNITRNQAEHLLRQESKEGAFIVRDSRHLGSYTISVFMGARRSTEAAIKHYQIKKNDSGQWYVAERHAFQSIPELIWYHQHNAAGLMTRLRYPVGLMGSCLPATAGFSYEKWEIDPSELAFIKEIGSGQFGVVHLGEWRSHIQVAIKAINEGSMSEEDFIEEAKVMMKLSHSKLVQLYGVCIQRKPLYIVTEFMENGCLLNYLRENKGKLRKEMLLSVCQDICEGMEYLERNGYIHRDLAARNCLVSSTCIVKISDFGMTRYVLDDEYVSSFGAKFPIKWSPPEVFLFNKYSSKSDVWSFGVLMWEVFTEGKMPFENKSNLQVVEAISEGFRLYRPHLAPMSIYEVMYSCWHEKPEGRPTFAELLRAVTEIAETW

ABL1 = target: T6, ABL1 (Homo sapiens, UniProt P00519); conditions: for percent of DMSO control binding at 10 µM / remaining activity at 10 µM: read-out: percent of DMSO vehicle control; for KD: dose-response; for remaining activity at 10 µM: primary screen
T6 construct: the DNA-tagged SH2 domain concentrations used in this study were <0.1 nM; made in house; host or cells: HEK293 (transient transfection; unpurified extract)
T6 sequence (P00519 127-217 limits assumed): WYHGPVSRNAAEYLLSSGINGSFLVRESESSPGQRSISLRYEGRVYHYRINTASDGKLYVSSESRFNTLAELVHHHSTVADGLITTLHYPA

TNS1 = target: T7, TNS1 (Homo sapiens, UniProt Q9HBL0); conditions: read-out: percent of DMSO vehicle control; for remaining activity at 10 µM: primary screen
T7 construct: made in house; host or cells: HEK293 (transient transfection), unpurified extract
T7 sequence (Q9HBL0 whole entry): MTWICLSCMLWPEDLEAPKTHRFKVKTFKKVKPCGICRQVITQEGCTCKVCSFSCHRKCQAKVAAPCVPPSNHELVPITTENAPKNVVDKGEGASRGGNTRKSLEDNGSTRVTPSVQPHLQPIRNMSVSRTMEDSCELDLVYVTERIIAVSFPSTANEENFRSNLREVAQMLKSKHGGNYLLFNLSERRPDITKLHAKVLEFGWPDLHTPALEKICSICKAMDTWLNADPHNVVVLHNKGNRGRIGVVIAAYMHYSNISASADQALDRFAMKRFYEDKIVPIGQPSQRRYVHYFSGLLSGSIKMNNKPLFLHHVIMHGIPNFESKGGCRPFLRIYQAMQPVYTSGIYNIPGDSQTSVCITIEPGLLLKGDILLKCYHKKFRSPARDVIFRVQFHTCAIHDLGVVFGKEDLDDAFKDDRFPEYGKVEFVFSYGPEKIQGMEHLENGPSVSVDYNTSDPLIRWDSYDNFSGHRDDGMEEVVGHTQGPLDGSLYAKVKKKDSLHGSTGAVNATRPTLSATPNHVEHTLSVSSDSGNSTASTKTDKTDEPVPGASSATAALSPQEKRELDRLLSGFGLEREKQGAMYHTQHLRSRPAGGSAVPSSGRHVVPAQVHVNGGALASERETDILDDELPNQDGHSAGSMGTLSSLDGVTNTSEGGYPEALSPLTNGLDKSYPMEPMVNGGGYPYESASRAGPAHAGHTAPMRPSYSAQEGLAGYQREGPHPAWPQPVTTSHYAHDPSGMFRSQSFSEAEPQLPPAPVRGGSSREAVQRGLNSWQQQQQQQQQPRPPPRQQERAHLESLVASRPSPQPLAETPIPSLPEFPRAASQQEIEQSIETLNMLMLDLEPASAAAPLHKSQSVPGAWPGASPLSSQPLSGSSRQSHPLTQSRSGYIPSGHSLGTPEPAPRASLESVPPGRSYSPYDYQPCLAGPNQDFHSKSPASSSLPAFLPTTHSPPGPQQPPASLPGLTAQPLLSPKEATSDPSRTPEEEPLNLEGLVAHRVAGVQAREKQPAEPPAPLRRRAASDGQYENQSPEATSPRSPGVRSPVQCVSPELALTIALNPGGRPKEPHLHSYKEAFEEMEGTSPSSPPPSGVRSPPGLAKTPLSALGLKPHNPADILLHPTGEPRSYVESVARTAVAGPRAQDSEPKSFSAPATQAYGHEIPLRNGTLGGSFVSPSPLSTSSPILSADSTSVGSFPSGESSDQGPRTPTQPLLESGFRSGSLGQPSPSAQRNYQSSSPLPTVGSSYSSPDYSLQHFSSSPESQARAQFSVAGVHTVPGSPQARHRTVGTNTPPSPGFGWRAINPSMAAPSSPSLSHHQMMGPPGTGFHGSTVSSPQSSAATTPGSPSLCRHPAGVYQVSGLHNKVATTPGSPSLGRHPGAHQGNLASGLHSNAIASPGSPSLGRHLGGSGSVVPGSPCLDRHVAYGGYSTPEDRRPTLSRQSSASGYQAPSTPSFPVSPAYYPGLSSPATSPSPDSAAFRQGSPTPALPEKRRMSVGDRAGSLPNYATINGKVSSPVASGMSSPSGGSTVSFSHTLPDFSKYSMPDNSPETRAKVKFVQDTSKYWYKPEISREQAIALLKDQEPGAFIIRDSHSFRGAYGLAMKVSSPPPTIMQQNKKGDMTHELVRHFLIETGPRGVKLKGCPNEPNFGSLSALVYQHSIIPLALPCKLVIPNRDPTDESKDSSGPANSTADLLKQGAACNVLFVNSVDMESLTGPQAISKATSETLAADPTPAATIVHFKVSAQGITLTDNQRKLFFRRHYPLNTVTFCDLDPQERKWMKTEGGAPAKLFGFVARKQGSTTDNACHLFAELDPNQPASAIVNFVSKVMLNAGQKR

PIK3R3(SH2dom.C-term.) = target: T8, PIK3R3(SH2dom.C-term.) (Homo sapiens, UniProt Q92569); conditions: for remaining activity at 10 µM: read-out: percent of DMSO vehicle control; for Kd: dose-response, read-out: KD
T8 construct: SH2dom.C-term. denotes SH2 domain closest to C-terminus of protein; made in house; host or cells: HEK293 (transient transfection, unpurified extract)

STAP1 = target: T9, STAP1 (Homo sapiens, UniProt Q9ULZ2); conditions: read-out: percent of DMSO vehicle control
T9 construct: made in house; host or cells: HEK293 (transient transfection), unpurified extract
T9 sequence (Q9ULZ2 1-295): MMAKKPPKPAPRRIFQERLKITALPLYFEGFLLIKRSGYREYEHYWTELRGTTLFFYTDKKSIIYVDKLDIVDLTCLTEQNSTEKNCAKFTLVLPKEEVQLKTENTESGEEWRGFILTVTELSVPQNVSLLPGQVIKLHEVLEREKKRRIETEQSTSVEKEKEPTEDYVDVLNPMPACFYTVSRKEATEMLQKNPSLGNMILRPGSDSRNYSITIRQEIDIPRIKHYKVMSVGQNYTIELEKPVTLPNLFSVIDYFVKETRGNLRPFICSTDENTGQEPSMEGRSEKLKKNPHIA

| Compound | remaining activity at 10 µM (SOCS2) | remaining activity at 10 µM (SHF) | remaining activity at 10 µM (SOCS7) | remaining activity at 10 µM (PIK3R2(SH2dom.C-term.)) | remaining activity at 10 µM (TXK) | percent of DMSO control binding at 10 µM (ABL1) | percent of DMSO vehicle control at 10 µM (TNS1) | remaining activity at 10 µM (PIK3R3(SH2dom.C-term.)) | remaining activity at 10 µM (STAP1) | Kd (SOCS2) | remaining activity at 10 µM (SOCS2; primary screen, 10 μM) | remaining activity at 10 µM (SHF; primary screen, 10 μM) | remaining activity at 10 µM (SOCS7; primary screen, 10 μM) | remaining activity at 10 µM (PIK3R2(SH2dom.C-term.); primary screen, 10 μM) | remaining activity at 10 µM (TXK; primary screen, 10 μM) | KD (ABL1) | remaining activity at 10 µM (ABL1) | remaining activity at 10 µM (TNS1) | remaining activity at 10 µM (PIK3R3(SH2dom.C-term.); primary screen, 10 μM) | remaining activity at 10 µM (STAP1; primary screen, 10 μM) | also measured |
| --- | --- | --- | --- | --- | --- | --- | --- | --- | --- | --- | --- | --- | --- | --- | --- | --- | --- | --- | --- | --- | --- |
| NC(=O)CC[C@H](NC(=O)[C@@H]1CC[C@@H]2CCN(C(=O)CCCCCC#Cc3cccc4c3CN(C3CCC(=O)NC3=O)C4=O)C[C@H](NC(=O)c3cc4cc(C(F)(F)P(=O)(O)O)ccc4[nH]3)C(=O)N21)C(=O)NC(c1ccccc1)c1ccccc1 (some centres unmarked) [SD-36] | 98.5 ± 5.4% | 100 ± 5.2% | 271% | 18.5 ± 3.9% | 101 ± 9.7% | 87.4 ± 24% | 112.9 ± 1% | 57.8 ± 6.8% | 79.9 ± 5.8% |  |  |  |  |  |  |  |  |  |  |  | KD (PIK3R2(SH2dom.C-term.); dose-response): No Hit |
| CC(=O)N1CC[C@H]2CC[C@@H](C(=O)N[C@@H](CCC(N)=O)C(=O)NC(c3ccccc3)c3ccccc3)N2C(=O)[C@@H](NC(=O)c2cc3cc(C(F)(F)P(=O)(O)O)ccc3[nH]2)C1 [SI-109] | 142% | 78.9 ± 3% | 124% | 120% | 118% | 132% | 152% | 137% | 104% |  |  |  |  |  |  |  |  |  |  |  |  |
| C/C(=C\C(=O)N[C@H](C(=O)N1CCC[C@H]1C(=O)N(c1ccccc1)c1ccc(I)cc1)C(C)(C)C)c1ccc(OP(=O)(O)O)cc1 [STAT6-IN-1] |  |  |  |  |  |  |  |  |  | 1.5 ± 0.87 µM | 0% | 43.6 ± 7.2% | 34.6 ± 0.1% | 0.2 ± 0.1% | 87.1 ± 5.9% | No Hit | 0% | 87.6 ± 10% | 1 ± 0.1% | 65.6 ± 5.1% | KD (SOCS7; dose-response): No Hit; Kd (PIK3R2(SH2dom.C-term.); dose-response): 1 ± 0.078 µM; Kd (PIK3R3(SH2dom.C-term.)): 0.78 ± 0.042 µM |
| CC(C)(C)[C@H](NC(=O)/C=C/c1ccc(OP(=O)(O)O)cc1)C(=O)N1CCC[C@H]1C(=O)N(c1ccccc1)c1ccc(I)cc1 [STAT6-IN-3] |  |  |  |  |  |  |  |  |  | 1.01 ± 0.013 µM | 7.9 ± 50.6% | 89.5 ± 4.6% | 50.9 ± 16.4% | 6.1 ± 1.6% | 85.4 ± 12.9% | No Hit | 0% | 88.4 ± 24.5% | 26.9 ± 10.2% | 76.9 ± 9.2% | Kd (PIK3R2(SH2dom.C-term.); dose-response): 0.49 ± 0.08 µM; Kd (PIK3R3(SH2dom.C-term.)): 1.02 ± 0.26 µM |
| O=C(COc1ccc2cc(C(=O)Nc3ccccc3)ccc2c1)NCc1ccc(OP(=O)(O)O)c(OP(=O)(O)O)c1 [Stafib-1] |  |  |  |  |  |  |  |  |  |  | 47.9 ± 29% | 79.7 ± 9.4% | 81 ± 17.8% | 84.2 ± 34.7% | 144% | No Hit | 19.9% | 132% | 86.5% | 92 ± 6.8% |  |
